Paper PMC6458995, “MAP4K4 Inhibition Promotes Survival of Human Stem Cell-Derived Cardiomyocytes and Reduces Infarct Size In Vivo” (Cell Stem Cell, 2019)

What was measured:
Assay in all cases: Dundee kinase panel
Format in all cases: biochemical
Conditions in all cases: for remaining activity at 1 µM: read-out: residual activity
CK1γ2 = target: T1, CK1γ2 (Homo sapiens, UniProt P78368)
T1 construct: lines 1-140) and Reaction Biology
Description: (§1) Compounds were screened at 1 μM. For key hits, pIC50 values were then determined by HTRF as above. […] Stability in mouse and human liver microsomes was determined by Cyprotex.

DYRK2 = target: T2, DYRK2 (Homo sapiens, UniProt Q92630)
T2 construct: lines 1-140) and Reaction Biology
T2 sequence (Q92630 1-601): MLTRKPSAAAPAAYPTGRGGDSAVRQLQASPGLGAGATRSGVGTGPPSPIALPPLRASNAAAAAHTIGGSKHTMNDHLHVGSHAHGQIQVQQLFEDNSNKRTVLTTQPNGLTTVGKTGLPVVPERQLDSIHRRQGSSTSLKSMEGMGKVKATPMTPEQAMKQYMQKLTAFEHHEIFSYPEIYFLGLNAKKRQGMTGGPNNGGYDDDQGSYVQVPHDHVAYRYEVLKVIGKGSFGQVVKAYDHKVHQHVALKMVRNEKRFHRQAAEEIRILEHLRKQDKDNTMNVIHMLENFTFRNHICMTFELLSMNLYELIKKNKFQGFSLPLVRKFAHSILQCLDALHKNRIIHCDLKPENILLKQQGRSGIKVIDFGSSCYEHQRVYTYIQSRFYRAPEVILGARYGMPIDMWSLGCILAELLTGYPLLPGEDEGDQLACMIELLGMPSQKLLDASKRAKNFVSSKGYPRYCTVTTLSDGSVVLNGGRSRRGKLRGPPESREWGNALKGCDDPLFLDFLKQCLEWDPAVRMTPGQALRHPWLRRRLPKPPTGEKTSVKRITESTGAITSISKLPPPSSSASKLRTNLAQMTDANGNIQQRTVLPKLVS
Description: as §1

IRAK1 = target: T3, IRAK1 (Homo sapiens, UniProt P51617)
T3 construct: lines 1-140) and Reaction Biology
T3 sequence (P51617 whole entry): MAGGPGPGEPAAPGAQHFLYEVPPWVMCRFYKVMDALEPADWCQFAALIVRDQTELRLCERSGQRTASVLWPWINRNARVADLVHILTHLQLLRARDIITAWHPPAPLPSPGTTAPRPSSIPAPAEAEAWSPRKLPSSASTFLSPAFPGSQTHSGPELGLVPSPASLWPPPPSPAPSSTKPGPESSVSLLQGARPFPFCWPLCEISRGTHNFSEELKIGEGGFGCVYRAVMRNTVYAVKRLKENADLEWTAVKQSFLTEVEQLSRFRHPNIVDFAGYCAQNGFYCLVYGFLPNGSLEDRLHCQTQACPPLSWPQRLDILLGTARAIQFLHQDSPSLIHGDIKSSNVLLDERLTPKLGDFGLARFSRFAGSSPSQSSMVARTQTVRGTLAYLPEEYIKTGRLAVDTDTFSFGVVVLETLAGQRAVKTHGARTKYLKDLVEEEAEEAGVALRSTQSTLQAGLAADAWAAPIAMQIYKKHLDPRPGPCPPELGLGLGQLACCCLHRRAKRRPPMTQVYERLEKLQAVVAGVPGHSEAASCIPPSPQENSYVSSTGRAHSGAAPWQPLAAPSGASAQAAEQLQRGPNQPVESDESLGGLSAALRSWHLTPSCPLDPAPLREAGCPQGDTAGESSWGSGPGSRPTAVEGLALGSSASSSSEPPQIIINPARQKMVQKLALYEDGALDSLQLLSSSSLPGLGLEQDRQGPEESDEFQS
Description: as §1

MARK3 = target: T4, MARK3 (Homo sapiens, UniProt P27448)
T4 construct: lines 1-140) and Reaction Biology
T4 sequence (P27448 whole entry): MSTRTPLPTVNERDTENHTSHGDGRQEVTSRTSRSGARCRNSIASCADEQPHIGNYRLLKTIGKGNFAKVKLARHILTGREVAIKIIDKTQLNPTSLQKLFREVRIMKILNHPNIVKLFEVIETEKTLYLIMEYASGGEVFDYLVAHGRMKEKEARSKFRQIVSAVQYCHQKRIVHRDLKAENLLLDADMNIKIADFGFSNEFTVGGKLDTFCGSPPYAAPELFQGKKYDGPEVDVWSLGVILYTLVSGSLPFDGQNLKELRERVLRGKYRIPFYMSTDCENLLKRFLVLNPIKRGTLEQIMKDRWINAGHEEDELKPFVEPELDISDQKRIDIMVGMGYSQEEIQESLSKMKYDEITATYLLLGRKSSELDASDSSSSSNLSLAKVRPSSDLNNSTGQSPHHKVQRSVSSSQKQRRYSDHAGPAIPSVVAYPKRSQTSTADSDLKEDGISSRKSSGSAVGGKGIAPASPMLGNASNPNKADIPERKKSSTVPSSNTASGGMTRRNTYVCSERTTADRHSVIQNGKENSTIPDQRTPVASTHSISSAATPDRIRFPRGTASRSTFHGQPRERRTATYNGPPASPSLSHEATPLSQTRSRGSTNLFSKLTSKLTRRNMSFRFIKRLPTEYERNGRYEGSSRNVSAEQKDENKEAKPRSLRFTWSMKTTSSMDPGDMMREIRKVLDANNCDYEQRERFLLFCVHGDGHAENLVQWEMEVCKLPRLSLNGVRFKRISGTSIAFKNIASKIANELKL
Description: as §1

MPSK1 = target: T5, MPSK1 (Homo sapiens, UniProt O75716)
T5 construct: lines 1-140) and Reaction Biology
T5 sequence (O75716 whole entry): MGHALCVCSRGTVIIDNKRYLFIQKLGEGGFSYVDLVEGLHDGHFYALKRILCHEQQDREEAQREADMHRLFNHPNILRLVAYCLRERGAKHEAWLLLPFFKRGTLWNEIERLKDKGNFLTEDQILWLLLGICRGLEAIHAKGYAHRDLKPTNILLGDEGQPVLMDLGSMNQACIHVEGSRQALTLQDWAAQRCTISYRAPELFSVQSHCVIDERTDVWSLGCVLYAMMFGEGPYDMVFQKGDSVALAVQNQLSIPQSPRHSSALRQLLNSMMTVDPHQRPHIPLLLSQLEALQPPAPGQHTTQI
Description: as §1

MST3 = target: T6, MST3 (Homo sapiens, UniProt Q9Y6E0)
T6 construct: lines 1-140) and Reaction Biology
T6 sequence (Q9Y6E0 whole entry): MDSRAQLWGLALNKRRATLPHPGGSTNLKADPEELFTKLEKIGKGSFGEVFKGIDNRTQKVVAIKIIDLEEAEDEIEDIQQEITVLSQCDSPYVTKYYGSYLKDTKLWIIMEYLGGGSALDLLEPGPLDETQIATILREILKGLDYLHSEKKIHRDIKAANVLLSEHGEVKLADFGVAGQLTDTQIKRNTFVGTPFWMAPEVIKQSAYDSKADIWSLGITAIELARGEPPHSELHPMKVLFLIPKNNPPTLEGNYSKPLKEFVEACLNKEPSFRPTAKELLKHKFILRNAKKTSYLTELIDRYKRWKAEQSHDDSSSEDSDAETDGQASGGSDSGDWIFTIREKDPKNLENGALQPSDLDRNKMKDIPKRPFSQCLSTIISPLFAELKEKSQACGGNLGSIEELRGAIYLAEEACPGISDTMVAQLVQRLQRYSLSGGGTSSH
Description: as §1

MST4 = target: T7, MST4 (Homo sapiens, UniProt Q9P289)
T7 construct: lines 1-140) and Reaction Biology
T7 sequence (Q9P289 whole entry): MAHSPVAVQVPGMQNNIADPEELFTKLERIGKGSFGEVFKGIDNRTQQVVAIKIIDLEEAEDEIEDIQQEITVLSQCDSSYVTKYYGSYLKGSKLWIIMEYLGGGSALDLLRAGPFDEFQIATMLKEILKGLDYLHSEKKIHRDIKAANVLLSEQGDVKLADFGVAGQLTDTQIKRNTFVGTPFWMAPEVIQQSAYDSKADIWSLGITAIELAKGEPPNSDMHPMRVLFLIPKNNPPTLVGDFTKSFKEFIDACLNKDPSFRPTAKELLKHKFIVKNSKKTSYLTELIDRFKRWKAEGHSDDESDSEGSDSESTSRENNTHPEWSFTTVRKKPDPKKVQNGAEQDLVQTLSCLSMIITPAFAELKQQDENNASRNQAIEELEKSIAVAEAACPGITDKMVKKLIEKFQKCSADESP
Description: as §1

PKBa = target: T8, PKBa (Homo sapiens, UniProt P31749)
T8 construct: lines 1-140) and Reaction Biology
T8 sequence (P31749 whole entry): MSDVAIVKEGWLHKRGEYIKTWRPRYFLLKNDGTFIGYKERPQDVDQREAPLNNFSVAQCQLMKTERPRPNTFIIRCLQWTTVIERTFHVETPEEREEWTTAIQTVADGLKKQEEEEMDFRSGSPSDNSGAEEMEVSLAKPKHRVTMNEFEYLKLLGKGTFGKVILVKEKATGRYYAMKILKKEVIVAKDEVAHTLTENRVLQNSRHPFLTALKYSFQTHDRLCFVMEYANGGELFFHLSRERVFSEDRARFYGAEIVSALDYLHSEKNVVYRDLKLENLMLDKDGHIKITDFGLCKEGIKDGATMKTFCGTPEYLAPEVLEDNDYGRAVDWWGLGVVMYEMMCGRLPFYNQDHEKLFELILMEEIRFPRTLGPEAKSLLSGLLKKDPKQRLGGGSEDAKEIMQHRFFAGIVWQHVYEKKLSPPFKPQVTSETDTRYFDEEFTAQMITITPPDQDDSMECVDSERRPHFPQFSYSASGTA
Description: as §1

PKBb = target: T9, PKBb (Homo sapiens, UniProt P31751)
T9 construct: lines 1-140) and Reaction Biology
T9 sequence (P31751 whole entry): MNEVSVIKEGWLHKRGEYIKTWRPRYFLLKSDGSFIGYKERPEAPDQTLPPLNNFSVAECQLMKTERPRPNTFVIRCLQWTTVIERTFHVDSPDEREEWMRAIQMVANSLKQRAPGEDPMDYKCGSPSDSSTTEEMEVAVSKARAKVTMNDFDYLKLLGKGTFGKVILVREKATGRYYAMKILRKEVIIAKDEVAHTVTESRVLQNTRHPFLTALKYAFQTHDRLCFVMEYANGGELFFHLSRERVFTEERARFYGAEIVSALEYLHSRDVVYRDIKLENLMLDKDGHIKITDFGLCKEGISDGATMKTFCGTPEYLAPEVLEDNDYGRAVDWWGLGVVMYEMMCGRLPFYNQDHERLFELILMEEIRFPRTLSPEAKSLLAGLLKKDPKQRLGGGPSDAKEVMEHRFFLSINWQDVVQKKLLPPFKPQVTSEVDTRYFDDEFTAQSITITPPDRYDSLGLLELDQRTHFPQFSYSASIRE
Description: as §1

SGK1 = target: T10, SGK1 (Homo sapiens, UniProt O00141)
T10 construct: lines 1-140) and Reaction Biology
T10 sequence (O00141 1-431): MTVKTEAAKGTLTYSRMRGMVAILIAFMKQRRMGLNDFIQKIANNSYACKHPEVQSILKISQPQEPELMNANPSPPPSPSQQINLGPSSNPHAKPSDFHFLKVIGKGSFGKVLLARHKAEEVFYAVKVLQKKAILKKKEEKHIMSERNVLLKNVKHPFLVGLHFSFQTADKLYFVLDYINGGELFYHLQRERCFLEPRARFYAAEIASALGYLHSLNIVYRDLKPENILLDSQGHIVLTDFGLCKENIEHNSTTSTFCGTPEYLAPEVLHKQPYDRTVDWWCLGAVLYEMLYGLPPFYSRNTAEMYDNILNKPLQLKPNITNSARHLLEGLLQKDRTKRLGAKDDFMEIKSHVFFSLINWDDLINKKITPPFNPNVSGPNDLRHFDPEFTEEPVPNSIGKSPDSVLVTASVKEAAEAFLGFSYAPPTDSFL
Description: as §1

ULK1 = target: T11, ULK1 (Homo sapiens, UniProt O75385)
T11 construct: lines 1-140) and Reaction Biology
T11 sequence (O75385 1-1050): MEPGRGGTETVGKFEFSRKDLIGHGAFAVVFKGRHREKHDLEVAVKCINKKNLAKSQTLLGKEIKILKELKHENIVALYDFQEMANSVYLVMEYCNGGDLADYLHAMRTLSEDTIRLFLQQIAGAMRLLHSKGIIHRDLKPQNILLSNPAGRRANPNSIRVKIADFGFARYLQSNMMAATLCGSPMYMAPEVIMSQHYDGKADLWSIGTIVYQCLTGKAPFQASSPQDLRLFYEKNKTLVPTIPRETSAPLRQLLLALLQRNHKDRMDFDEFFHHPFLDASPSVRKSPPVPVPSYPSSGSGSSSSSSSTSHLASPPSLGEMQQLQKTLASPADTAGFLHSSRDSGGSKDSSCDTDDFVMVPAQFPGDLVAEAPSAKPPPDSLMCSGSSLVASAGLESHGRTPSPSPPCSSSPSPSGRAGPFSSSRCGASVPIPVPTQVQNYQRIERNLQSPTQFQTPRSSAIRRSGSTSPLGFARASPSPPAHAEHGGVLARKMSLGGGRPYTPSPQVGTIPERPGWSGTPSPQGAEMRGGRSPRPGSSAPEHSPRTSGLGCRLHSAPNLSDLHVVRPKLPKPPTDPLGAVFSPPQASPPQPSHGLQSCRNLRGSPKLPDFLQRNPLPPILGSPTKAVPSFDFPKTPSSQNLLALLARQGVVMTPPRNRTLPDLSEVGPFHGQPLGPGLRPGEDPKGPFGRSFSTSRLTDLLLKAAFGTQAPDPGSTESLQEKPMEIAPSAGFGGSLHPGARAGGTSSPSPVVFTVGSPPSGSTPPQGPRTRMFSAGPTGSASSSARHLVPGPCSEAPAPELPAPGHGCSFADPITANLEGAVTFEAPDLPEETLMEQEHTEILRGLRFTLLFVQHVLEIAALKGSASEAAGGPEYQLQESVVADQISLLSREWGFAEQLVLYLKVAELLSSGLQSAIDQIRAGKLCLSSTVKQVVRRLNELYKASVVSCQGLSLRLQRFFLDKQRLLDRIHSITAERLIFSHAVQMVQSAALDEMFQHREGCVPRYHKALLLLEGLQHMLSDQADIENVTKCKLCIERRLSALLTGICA
Description: as §1

p38b MAPK = target: T12, p38b MAPK (Homo sapiens, UniProt Q15759)
T12 construct: lines 1-140) and Reaction Biology
T12 sequence (Q15759 whole entry): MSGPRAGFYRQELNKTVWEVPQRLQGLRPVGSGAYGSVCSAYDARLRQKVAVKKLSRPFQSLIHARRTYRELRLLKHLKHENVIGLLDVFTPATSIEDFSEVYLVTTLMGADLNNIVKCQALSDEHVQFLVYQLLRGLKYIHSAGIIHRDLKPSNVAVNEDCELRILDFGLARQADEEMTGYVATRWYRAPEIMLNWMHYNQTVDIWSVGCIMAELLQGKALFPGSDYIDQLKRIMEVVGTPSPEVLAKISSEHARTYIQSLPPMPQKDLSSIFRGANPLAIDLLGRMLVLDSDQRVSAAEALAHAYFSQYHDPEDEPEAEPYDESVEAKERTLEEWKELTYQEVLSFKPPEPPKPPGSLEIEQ
Description: as §1

T1 sequence (P78368 whole entry): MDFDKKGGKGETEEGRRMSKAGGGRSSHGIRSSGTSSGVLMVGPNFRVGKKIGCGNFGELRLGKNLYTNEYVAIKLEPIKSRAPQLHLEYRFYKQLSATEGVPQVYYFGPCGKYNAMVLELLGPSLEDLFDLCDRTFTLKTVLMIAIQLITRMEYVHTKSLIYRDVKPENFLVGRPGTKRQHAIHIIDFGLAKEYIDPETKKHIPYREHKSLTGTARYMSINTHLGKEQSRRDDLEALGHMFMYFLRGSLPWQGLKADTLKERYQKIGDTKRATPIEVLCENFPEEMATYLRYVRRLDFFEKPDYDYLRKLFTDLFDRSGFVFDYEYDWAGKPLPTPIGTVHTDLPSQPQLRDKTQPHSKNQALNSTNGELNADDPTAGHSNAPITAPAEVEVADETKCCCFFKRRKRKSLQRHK

| Compound | remaining activity at 1 µM (CK1γ2) | remaining activity at 1 µM (DYRK2) | remaining activity at 1 µM (IRAK1) | remaining activity at 1 µM (MARK3) | remaining activity at 1 µM (MPSK1) | remaining activity at 1 µM (MST3) | remaining activity at 1 µM (MST4) | remaining activity at 1 µM (PKBa) | remaining activity at 1 µM (PKBb) | remaining activity at 1 µM (SGK1) | remaining activity at 1 µM (ULK1) | remaining activity at 1 µM (p38b MAPK) | also measured |
| --- | --- | --- | --- | --- | --- | --- | --- | --- | --- | --- | --- | --- | --- |
| COCCOc1ccc(-c2cn(-c3ccccc3)c3nc[nH]c(=O)c23)cc1 [DMX-5804, 5-[4-(2-methoxy-ethoxy)-phenyl]-7-phenyl-3,7-dihydro-pyrrolo[2,3-d]pyrimidin-4-one] | 103% | 115% | 100% | 88% | 103% | 95% | 102% | 116% | 116% | 104% | 82% | 93% |  |
| Oc1ncnc2c1c(-c1ccccc1)cn2-c1ccccc1 [F1386-0303, 5,7-diphenyl-7H-pyrrolo[2,3-d]pyrimidin-4-ol] | 106% | 93% | 107% | 111% | 117% | 120% | 109% | 117% | 95% | 101% | 84% | 96% |  |
| Nc1ncc(C(=O)NC2CN(C(=O)C3CC3)C2)c2ccc(-c3cccc(F)c3)nc12 [GNE-495] |  |  |  |  |  |  |  |  |  |  |  |  | residual activity (CK1γ2; 1 μM): 107%; residual activity (DYRK2; 1 μM): 55%; residual activity (IRAK1; 1 μM): 113%; residual activity (MARK3; 1 μM): 46%; residual activity (MPSK1; 1 μM): 100%; residual activity (MST3; 1 μM): 72%; residual activity (MST4; 1 μM): 117%; residual activity (PKBa; 1 μM): 105%; residual activity (PKBb; 1 μM): 99%; residual activity (SGK1; 1 μM): 55%; residual activity (ULK1; 1 μM): 110%; residual activity (p38b MAPK; 1 μM): 100% |
| O=C1Nc2ccc(I)cc2/C1=C/c1cc(Br)c(O)c(Br)c1 [GW5074] | 68% | 13% | 57% | 72% | 38% | 29% | 89% | 93% | 69% | 91% | 97% | 77% |  |
| O=C1Cc2c([nH]c3ccc(Br)cc23)-c2ccccc2N1 [Kenpaullone] | 81% | 91% | 39% | 62% | 74% | 67% | 74% | 95% | 106% | 101% | 107% | 95% |  |
